Results: patent publication EP4663632A1, “COMPOUNDS USEFUL FOR THE MODULATION OF THE ACTIVITY OF STING” (Sulis Therapeutics ApS, priority 2024, dated 2025)
Several values for one entry are separate records, joined by “and”; a condition that tells them apart may be missing. Equal values may be shown once.

Experiments:
STING [1] = target: T1, STING (Homo sapiens, UniProt Q86WV6); assay: Inhibition of STING-agonist-induced IFN-β release in H596 cells (H596 STING inhibition assay); assay type: cell-based; conditions: 24h with compound, then 0.3 µM GSK STING agonist, 6h; ELISA
T1 sequence (Q86WV6 whole entry): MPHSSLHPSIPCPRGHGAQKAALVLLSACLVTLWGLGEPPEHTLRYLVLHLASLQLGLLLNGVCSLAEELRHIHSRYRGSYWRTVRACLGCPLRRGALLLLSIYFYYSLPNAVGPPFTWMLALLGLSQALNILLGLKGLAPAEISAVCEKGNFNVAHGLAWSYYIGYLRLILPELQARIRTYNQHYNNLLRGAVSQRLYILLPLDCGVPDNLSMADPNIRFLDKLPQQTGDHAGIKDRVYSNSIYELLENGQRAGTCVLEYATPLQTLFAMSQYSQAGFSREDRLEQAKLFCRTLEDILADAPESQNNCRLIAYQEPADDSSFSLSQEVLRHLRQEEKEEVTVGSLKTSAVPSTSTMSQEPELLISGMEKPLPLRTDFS
Procedure: Cell supernatants were analysed for IFN-β release using DuoSet human IFN-β ELISA (R&D systems, DY-814) following manufactures protocol except using 96-well, half-volume plates from Corning and subsequently use half volume for all steps throughout the protocol. In brief, plates were coated o/n with a 130x dilution of capturing antibody in PBS. Wells were washed 3x with PBS-T20 followed by blocking with 1% BSA diluted in TBS-T20 for 1h. Wells were washed 3x with PBS-T20 and standards (n=2) and samples (n=3) were added to the plate and incubated for 2h at rt. Wells were washed 3x with PBS-T20 and detection antibody diluted 1:60 in 1% BSA in PBS was added to each well and incubated for 2h at rt. Plates were washed 3x with PBS-T20 and Streptavidin-HRP diluted 1:40 in 1% BSA in PBS was added pr well and incubated for 30 min at rt. The wells were washed 4x with PBS-T20 and TMB One Substrate (Promega) was added and incubated for 5-10 min in the dark. When fully developed, 1 mmol/L Sulfuric acid was added to stop the reaction. Signals were measured using BioTek Synergy H1 plate reader at 450nm and 570nm (reference).
Raw data values were quantified based on the standard curve using blank subtracted Δ450nm-570nm values generated using the Gen5 software connected to the plate reader. Concentrations were plotted into GraphPad Prism to calculate EC50 values using a 4-parameter non-linear regression fitting curve, bottom constrains set for >0.
To determine cellular effects of test compounds, we assessed inhibition of STING-agonist-induced IFN-β release in H596 cells (ATCC, HTB-178). Cells were seeded at a density of 25.000 cells/well in 96-well Nunclon Delta surface treated culture plate in RPMI-1640 growth medium (supplemented with 10% FBS, 1% Pen-strep). Cells were incubated over-night at 37°C 5% CO2 to allow adhesion. Next morning growth medium was renewed and a 10x concentration, 3-step dilution series of test compounds diluted in growth medium (5% DMSO) were added to the appropriate well. Final DMSO concentration was 0.5%. Cells were further incubated for 24h followed by incubation with a 10x concentration of GSK STING agonist (CAS number: 2138299-34-8), final concentration was 0.3 µM. Cells culture plates were further incubated, and supernatants were harvested after 6h and immediately stored at -20°C until determination of IFN-β release.
For ELISA and data analysis, the methods described above for HFF-1 cells were applied.

[2] = target: C-terminal domain (CTD) of human STING (Homo sapiens, UniProt Q86WV6); assay: STING binding FP assay III; set-up: recombinant human STING protein (155-379); conditions: 10 nM STING (FP assay III according to the text); read-out: STING binding FP assay II, IC50
Sequence of C-terminal domain (CTD) of human STING (Q86WV6 155-379): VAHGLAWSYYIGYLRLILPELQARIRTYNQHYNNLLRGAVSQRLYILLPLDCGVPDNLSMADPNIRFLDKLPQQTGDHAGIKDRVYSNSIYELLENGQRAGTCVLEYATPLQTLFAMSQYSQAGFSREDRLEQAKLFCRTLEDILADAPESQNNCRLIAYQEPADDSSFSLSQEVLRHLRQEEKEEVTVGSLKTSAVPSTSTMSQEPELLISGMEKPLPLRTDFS
Procedure, shortened: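 FP competition assay using 10 nM recombinant human STING (155-379) and 4 nM fluorescein-labelled STING ligand in 150 mM NaCl, 50 mM HEPES pH 7.5, 1 mM DTT with Tween-20. Plates were incubated 20 min at room temperature and read at Ex 485/Em 528 nm. IC50 values came from four-parameter fits.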

STING [3] = target: T1, STING; assay: Western Blot analysis for STING degradation (DC50) in HFF-1 cells; assay type: cell-based; set-up: host or cells: HFF-1 human foreskin fibroblasts; conditions: 24h; reference protein vinculin
Procedure: To assess STING degradation in human foreskin fibroblasts HFF-1 cells (ATCC, SCRC-1041) cells were seeded at a density of 60.000 cells/well in 24-well Nunclon Delta surface treated culture plate in DMEM growth medium (supplemented with 10% FBS, 1% Pen-strep). Cells were incubated over-night at 37°C 5% CO2 to allow adhesion. Next day growth medium was renewed and a 5x concentration of test compounds (2.5% DMSO) diluted in growth medium were added to the appropriate well. The final DMSO concentration were 0.5%. Cell culture plates were returned to the incubator for additional 24h.
(§1) For cell lysing for Western Blot analysis cell culture plates were brought to ice, supernatant was removed by aspiration and cells washed 2x in ice-cold DPBS. Cells were lysed in 65 µL of RIPA buffer supplemented with cOmplete ULTRA Tablets protease inhibitor cocktail, PIERCE Phosphatase inhibitor mini tablet, Benzonase and 10mM NaF for 20 min on ice. Lysates were collected, cleared by centrifugation (13000xg for 10 min at 4°C). Samples were either analysed directly or stored at -80°C until analysis.
(§2) For Western Blotting, total protein concentration in each lysate was determined using PIERCE Gold BCA Assay kit according to manufactures protocol. 6 µg of total protein was mixed with 2x Laemmli buffer containing DTT, boiled for 5 min at 95°C, cooled on ice and loaded into each well of a 4-20% Criterion TGX gel. Proteins were separated by electrophoresis, by running for 1h at 150V. After separation proteins were blotted onto a PVDF membrane by semi-dry transfer using Trans-Blot turbo system at pre-defined BioRad MIDI protocol; 25V, 1A (fixed) for 30 min. Membranes were blocked for 1h in 5% skim milk in TBS-T20 on a rocker at room temperature followed by washing and exposure to primary antibodies against human STING 1:1000 (Cell Signalling, #13647) or loading controls Vinculin 1:1000 (Cell Signalling, #13901) or beta-Actin 1:10000 (Sigma, A5441) all diluted in 5% BSA in TBS-T20. Membranes were probed over night at 4°C on a rocker. Membranes were washed 3x in TBS-T20 followed by exposure to secondary HRP-conjugated anti-rabbit antibody or HRP-conjugated anti-mouse antibody diluted 1:10000 in 5% skim milk in TBS-T20 as appropriate. Membranes were incubated for 1h at room temperature on a rocker, then washed 3x in TBS-T20.
(§3) For generating DC50 values, the intensity of individual bands was measured using imaged and expression levels were calculated as a ratio of STING intensities vs. Reference protein intensities and normalized to DMSO control. The normalized ratios were plotted on a XY curve in GraphPad Prism where DC50 was estimated using a 4-parameter non-linear regression fitting curve.

STING [4] = target: T1, STING; assay: Western Blot analysis for STING degradation in H596 cells; assay type: cell-based; conditions: 24h; reference protein beta-actin
Procedure: as §1, §2, §3
To assess STING degradation in H596 cells (ATCC, HTB-178) cells were seeded at a density of 100.000 cells/well in 24-well Nunclon Delta surface treated culture plate in RPMI-1640 growth medium (supplemented with 10% FBS, 1% Pen-strep). Cells were incubated over-night at 37°C 5% CO2 to allow adhesion. Next day growth medium was renewed and a 5x concentration of test compounds (2.5% DMSO) diluted in growth medium were added to the appropriate well. Final DMSO concentration was 0.5%. Cell culture plates were returned to the incubator for additional 24h. Final test compound concentrations were 0.22 µM, 0.67 µM, 2 µM and 6 µM.
For cell lysis, western blotting and data analysis, the methods described above for HFF-1 cells were applied.

STING [5] = target: T1, STING; assay: Western Blot analysis of inhibition of STING activation in HFF-1 cells; assay type: cell-based; set-up: host or cells: HFF-1 human foreskin fibroblasts; conditions: agonist only (-): 300 nM diABZI c3 or 8 µg/mL cGAMP
Procedure: To assess whether S1 STING ligands inhibit STING activation, primary human skin fibroblasts (Figure 5) or HFF-1 cells (Figure 6) were treated with various compounds which comprise only an S1 ligand domain and a Linker domain before undergoing Western Blot analysis as described below.
The cells were lysed and analysed on WB. […] The WB membrane was probed for p-STING, STING, p-IRF3, p-TBK1, and Vinculin.

STING [6] = target: T1, STING; assay: Western Blot analysis of STING phosphorylation in human fibroblast cells (STING agonism); assay type: cell-based; set-up: host or cells: HFF-1 human foreskin fibroblasts; conditions: control, 300nM diABZI C3 alone
Procedure: Human fibroblast were treated with a titration of E22, E9, E14 and E16 (7.2µM-3.6nM) for 24h prior to cell lysis and subsequently total STING, pSTING and Vinculin were assessed by western blot using rabbit anti-STING (1:1000), anti-pSTING (1:1000), anti-Vinculin (1:1000) and 2nd anti-rabbit-HRP (1:10.000) or anti-mouse-HRP (1:7500). Proteins were visualized using ImageQuant800. Control cells included untreated cells and cells treated with 300nM diABZI C3.

STING [7] = target: T1, STING; assay: Inhibition of STING-agonist-induced IFN-β and CXCL10 release by Compounds A9 and A11; assay type: cell-based; set-up: host or cells: HFF-1 human foreskin fibroblasts
Procedure: HFF-1 cells were also assessed for inhibition of STING-agonist-induced IFN-β and CXCL10 release in cells treated with Compounds A9 and A11. […] In contrast, pre-treating cells for 1 to 2 hours prior to diABZI c3, simultaneous treatment with A9 and diABZI c3, or pre-treating cells for 15 minutes with diABZI c3 followed by A9 treatment led to a decrease in the IFN media concentration to ~100 U/mL. […] In contrast, cells pre-treated for 1 to 2 hours prior to diABZI c3, simultaneous treatment with A9 and diABZI c3, or pre-treating cells for 15 minutes with diABZI c3 followed by A9 treatment led to a decrease in the CXCL10 media concentration to […] (Figure 9B, unfiled bars).
In contrast, pre-treating cells for 1 to 2 hours prior to diABZI c3, simultaneous treatment with A11 and diABZI c3, or pre-treating cells for 15 minutes with diABZI c3 followed by A11 treatment led to a decrease in the IFN media concentration to -10 - 20 U/mL. […] In contrast, cells pre-treated for 1 to 2 hours prior to diABZI c3, simultaneous treatment with A11 and diABZI c3, or pre-treating cells for 15 minutes with diABZI c3 followed by A11 treatment led to a decrease in the CXCL10 media concentration to -10 - 20 pg/mL (Figure 9B; filled bars).

STING [8] = target: T2, STING (Mus musculus, UniProt Q3TBT3); assay: IFN-β secretion from mouse RAW264.7 cells treated with diABZI; assay type: cell-based; set-up: endogenous in cells; host or cells: RAW264.7 mouse cells; conditions: 1.8 µM diABZI c3 only
T2 sequence (Q3TBT3 1-378): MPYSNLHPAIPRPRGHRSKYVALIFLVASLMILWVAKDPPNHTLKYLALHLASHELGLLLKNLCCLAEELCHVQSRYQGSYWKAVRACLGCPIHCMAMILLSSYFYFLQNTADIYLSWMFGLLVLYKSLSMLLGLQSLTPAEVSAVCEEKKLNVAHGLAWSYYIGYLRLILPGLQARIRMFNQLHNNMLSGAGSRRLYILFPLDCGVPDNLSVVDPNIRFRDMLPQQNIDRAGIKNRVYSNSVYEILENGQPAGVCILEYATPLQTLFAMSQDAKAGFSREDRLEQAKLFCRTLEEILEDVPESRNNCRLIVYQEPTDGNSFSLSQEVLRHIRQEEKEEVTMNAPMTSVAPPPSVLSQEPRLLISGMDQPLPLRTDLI
Procedure: As expected, RAW264.7 cells treated with 1.8 µM diABZI c3 increased IFN-β secretion, resulting in a media concentration of around 1000 pg/mL. In contrast, cells treated with 1.8 µM diABZI c3 and 0.05 µM Example compounds 14, 16 or 24 reduced this expression to approximately 500 pg/mL.

EC50 (STING [1]) [nM]	IC50 [2] [nM]	DC50 (STING [4]) [nM]	STING phosphorylation (pSTING) (STING [6])	CXCL10 media concentration (STING [7]; cells treated with diABZI c3 alone (0.3 µM))	IFN media concentration (STING [7]; cells treated with only diABZI c3 (0.3 µM), tris(hydrochloride))	IFN-β media concentration (STING [8])	Structure (SMILES)	DC50 (STING [3]) [nM]	phosphorylation of STING, IRF3 and TBK1 (STING [5])
< 200	7.1	< 200	–	–	–	–	CCn1nc(C)cc1C(=O)N=c1n(C)c2cc(C(N)=O)ccc2n1CCC(CCn1c(=NC(=O)c2cc(C)nn2CC)n(C)c2cc(C(N)=O)ccc21)OCC(=O)NCCOCCOCCOCCOCCC(=O)N1CCN(C(=O)CCC(=O)NCCCCOc2cc(-c3scnc3C)ccc2CNC(=O)[C@@H]2C[C@@H](O)CN2C(=O)[C@@H](NC(=O)C2(F)CC2)C(C)(C)C)CC1 (some centres unmarked) [Example 19]	–	–
< 200	2.7	< 200	–	–	–	–	CCn1nc(C)cc1C(=O)N=c1n(C)c2cc(C(N)=O)ccc2n1CCC(CCn1c(=NC(=O)c2cc(C)nn2CC)n(C)c2cc(C(N)=O)ccc21)OCC(=O)NCCOCCOCCOCCOCCC(=O)N1CCN(C(=O)CCOCCC(=O)NCCCCOc2cc(-c3scnc3C)ccc2CNC(=O)[C@@H]2C[C@@H](O)CN2C(=O)[C@@H](NC(=O)C2(F)CC2)C(C)(C)C)CC1 (some centres unmarked) [Example 20]	–	–
–	–	–	STING was phosphorylated	~ 60 pg/mL	~ 200 U/mL and ~ 100 U/mL	around 1000 pg/mL	CCn1nc(C)cc1C(=O)Nc1nc2cc(C(N)=O)cc(OC)c2n1C/C=C/Cn1c(NC(=O)c2cc(C)nn2CC)nc2cc(C(N)=O)cc(OCCCN3CCOCC3)c21.Cl.Cl.Cl [diABZI c3, (E)-1-(4-(5-carbamoyl-2-(1-ethyl-3-methyl-1H-pyrazole-5-carboxamido)-7-(3-morpholinopropoxy)-1H-benzo[d]imidazol-1-yl)but-2-en-1-yl)-2-(1-ethyl-3-methyl-1H-pyrazole-5-carboxamido)-7-methoxy-1H-benzimidazole-5-carboxamide tris(hydrochloride), reference compound]	–	STING was phosphorylated and activated as were the downstream STING effectors IRF3 and TBK1

Structure (SMILES)	EC50 (STING [1]) [nM]	IC50 [2] [nM]	DC50 (STING [4]) [nM]	STING phosphorylation (pSTING) (STING [6])	CXCL10 media concentration (STING [7]; cells treated with diABZI c3 alone (0.3 µM))	IFN media concentration (STING [7]; cells treated with only diABZI c3 (0.3 µM), tris(hydrochloride))	IFN-β media concentration (STING [8])	DC50 (STING [3]) [nM]	phosphorylation of STING, IRF3 and TBK1 (STING [5])
CCn1nc(C)cc1C(=O)N=c1n(C)c2cc(C(N)=O)ccc2n1CCC(CCn1c(=NC(=O)c2cc(C)nn2CC)n(C)c2cc(C(N)=O)ccc21)OCC(=O)NCCOCCOCCOCCOCCC(=O)NCCCCC(=O)N[C@H]1C[C@@H](C(=O)N[C@@H]2CCCc3ccccc32)N(C(=O)[C@@H](NC(=O)[C@H](C)NC)C2CCCCC2)C1 (some centres unmarked) [Example 10]	200 to 1000	4.5	–	–	–	–	–	< 200	–
